The values below come from patent US20090005415A1, “1,2-Diarylimidazoles for Use as Cb1 Modulators” (priority 2005, published 2009).

Counter-ions that a name gives are not always drawn.

A word on the melting point: it is the temperature of the solid-liquid transition. In the case of `Cc1c(C(=O)NN2CCCCC2)nc(-c2ccc(Cl)cc2Cl)n1-c1ccc(OCc2ccccc2)cc1` (as salt: hydrochloride) [Example 1, 1-(4-Benzyloxy-phenyl)-2-(2,4-dichloro-phenyl)-5-methyl-1H-imidazole-4-carboxylic acid piperidin-1-ylamide], the melting point fell in the range of 195 to 198 °C.
The result for `CCS(=O)(=O)Oc1ccc(-n2c(-c3ccc(Cl)cc3Cl)nc(C(=O)NN3CCCCC3)c2C)cc1` (as salt: hydrochloride) [Example 2, Ethanesulfonic acid 4-[2-(2,4-dichloro-phenyl)-5-methyl-4-(piperidin-1-ylcarbamoyl)-imidazol-1-yl]-phenyl ester] reads 94 to 101 °C; that for `Cc1c(C(=O)NN2CCCCC2)nc(-c2ccc(Cl)cc2Cl)n1-c1ccc(OS(=O)(=O)CCCC(F)(F)F)cc1` (as salt: hydrochloride) [Example 3, 4,4,4-Trifluoro-butane-1-sulfonic acid 4-[2-(2,4-dichloro-phenyl)-5-methyl-4-(piperidin-1-ylcarbamoyl)-imidazol-1-yl]-phenyl ester], 113 to 118 °C.
The result for `Cc1c(C(=O)NN2CCCCC2)nc(-c2ccc(Cl)cc2Cl)n1-c1ccc(OS(=O)(=O)c2cccnc2)cc1` (as salt: hydrochloride) [Example 4, Pyridine-3-sulfonic acid 4-[2-(2,4-dichloro-phenyl)-5-methyl-4-(piperidin-1-ylcarbamoyl)-imidazol-1-yl]-phenyl ester] reads 205 to 209 °C.
The result for `Cc1c(C(=O)NN2CCCCC2)nc(-c2ccc(Cl)cc2Cl)n1-c1ccc(OS(=O)(=O)c2ccc(Cl)s2)cc1` (as salt: hydrochloride) [Example 5, 5-Chloro-thiophene-2-sulfonic acid 4-[2-(2,4-dichloro-phenyl)-5-methyl-4-(piperidin-1-ylcarbamoyl)-imidazol-1-yl]-phenyl ester] reads 112 to 118 °C; that for `Cc1c(C(=O)NN2CCCCC2)nc(-c2ccc(Cl)cc2Cl)n1-c1ccc(OS(=O)(=O)CCC(C)(C)C)cc1` (as salt: hydrochloride) [Example 6, 3,3-Dimethyl-butane-1-sulfonic acid 4-[2-(2,4-dichloro-phenyl)-5-methyl-4-(piperidin-1-ylcarbamoyl)-imidazol-1-yl]-phenyl ester], 152 to 156 °C; that for `Cc1c(C(=O)NN2CCCCC2)nc(-c2ccc(Cl)cc2Cl)n1-c1ccc(OS(=O)(=O)c2cccs2)cc1` (as salt: hydrochloride) [Example 7, Thiophene-2-sulfonic acid 4-[2-(2,4-dichloro-phenyl)-5-methyl-4-(piperidin-1-ylcarbamoyl)-imidazol-1-yl]phenyl ester], 107 to 112 °C.
On to `Cc1c(C(=O)NN2CCCCC2)nc(-c2ccc(Cl)cc2Cl)n1-c1ccc(OS(=O)(=O)CCC(F)(F)F)cc1` (as salt: hydrochloride) [Example 8, 3,3,3-Trifluoro-propane-1-sulfonic acid 4-[2-(2,4-dichloro-phenyl)-5-methyl-4-(piperidin-1-ylcarbamoyl)-imidazol-1-yl]-phenyl ester], for which the melting point lay in the range of 183 to 186 °C.
Turning to `CCCS(=O)(=O)Oc1ccc(-n2c(-c3ccc(Cl)cc3Cl)nc(C(=O)NN3CCCCC3)c2C)cc1` (as salt: hydrochloride) [Example 9, Propane-1-sulfonic acid 4-[2-(2,4-dichloro-phenyl)-5-methyl-4-(piperidin-1-ylcarbamoyl)-imidazol-1-yl]-phenyl ester], the melting point is 126 to 133 °C.
